The record followed here is patent US7972611B2, “Fungus-induced inflammation and eosinophil degranulation” (Mayo Foundation for Medical Education and Research, priority 2005, dated 2011).

Series [1] has as its system eosinophils. It is filed as cell-based, human. The settings on record: for eosinophil degranulation (EDN release) induced by Alternaria extract: 3 hours at 37° C. As to the method: FIG. 9. […] Alternaria extract, trypsin, or PMA was pretreated with pepstatin A agarose, control agarose, or APMSF, and added to the PAR-2 peptide substrate (Panel A) or eosinophils (Panel B).
(§1) To monitor eosinophil function in response to extracts from Alternaria, degranulation of human eosinophils was measured by quantitating released eosinophil-derived neurotoxin (EDN) and/or MBP. In brief, freshly isolated eosinophils were suspended in HBSS with 25 mM HEPES and 0.01% gelatin at 5×10^5 cells/mL. Eosinophils and stimuli were incubated in 96-well tissue culture plates for 3 hours at 37° C. and 5% CO^2. Cell-free supernatants were stored at −20° C. A specific RIA quantitated eosinophil degranulation by measuring the concentration of EDN in the supernatants.

Series [2] has as its system trypsin. Description: Inhibition of trypsin cleavage of PAR-2 peptide substrate. The format is biochemical. The source says: (§2) FIG. 9. Effects of protease inhibitors on PAR-2 cleavage activity (Panel A) and EDN release activity (Panel B) of Alternaria extract. Alternaria extract, trypsin, or PMA was pretreated with pepstatin A agarose, control agarose, or APMSF, and added to the PAR-2 peptide substrate (Panel A) or eosinophils (Panel B). In Panel B, *, p<0.05 compared to no inhibitors, n=4.
(§3) A fluorescent quenched peptide substrate (Abz-SKGRSLIGK(Dnp)D) (SEQ ID NO:37), which spans the trypsin-cleavage site (between R and S) of PAR-2 was synthesized, and used it in an in vitro assay for PAR-2 cleavage and activation. […] Alternaria's activity was abolished when aspartate protease(s) was removed from the extract by pepstatin A agarose (FIG. 9); pepstatin A is a highly specific inhibitor for aspartate protease. […] Thus, an aspartate protease(s) in Alternaria extract, but not a serine protease(s), may be involved in the activation of eosinophils through PAR-2. this observation was confirmed by using other aspartate protease inhibitors, including alkalo-thermophilic bacillus inhibitor (ATBI), nelfinavir, and ritonavir.

In series [3] the test system is aspartate protease(s) in Alternaria extract. Description: Inhibition of PAR-2 cleavage activity of Alternaria extract. The settings on record: extract pretreated with inhibitor. It is filed as biochemical.
From the text: as §2, §3

The test system of series [4] is patients with CRS. In words: Open-label pilot trial of intranasal amphotericin B in CRS patients. How it is done:
To examine the clinical significance of fungal colonization in CRS, two clinical trials were performed to examine the efficacy of anti-fungal agents. It was hypothesized that anti-fungal agents will reduce the fungal burden in the upper airways, resulting in less antigenic stimulation of immune cells, less airway inflammation, and improved clinical outcomes. […] This prospective, open-label trial used amphotericin B as a medical treatment in 51 randomly selected CRS patients. The antifungal was applied intranasally using 20 mL of a 100 μg/mL solution twice daily for a mean of 11 months (minimum of 3 months).

Series [5] has as its system patients with CRS. In words: Randomized, placebo-controlled, double-blind trial of intranasal amphotericin B in CRS patients. The format is in vivo, human. The conditions noted are these: 6 months. How it is done:
Second, to address the efficacy of intranasal antifungal agents more objectively, a randomized, placebo-controlled, double-blind, single center trial was performed to treat 30 randomly selected CRS patients. Patients instilled 20 mL amphotericin B (250 μg/mL) or placebo to each nostril twice daily for 6 months. Twenty-four patients completed the 6 months of treatment. […] The changes in the endoscopic scores improved in the amphotericin B group compared to placebo (p=0.038). […] Some patients responded well to the treatment, but others not as well. Thus, fungi may be important in the development of CRS in certain patients.

For series [6], the system named is BEAS-2B cells. In words: Cytokine production by BEAS-2B airway epithelial cells. It is filed as cell-based, human. How it is done:
FIG. 10. Effects of fungi on IL-6 production by BEAS-2B cells. BEAS-2B cells were incubated with culture extracts of various fungi for 24 hours. IL-6 concentrations in the supernatants were measured by ELISA. *, p<0.05 compared to medium alone, n=3.
FIG. 11. Effects of an aspartate protease inhibitor, ritonavir, on IL-8 production by BEAS-2B cells. Alternaria extract or TNF-α was pretreated with ritonavir and added to BEAS-2B cells. IL-8 concentrations in the supernatants were measured after 24 hours. Data are normalized to the values without ritonavir as 100%. *, p<0.05 compared to no inhibitor, n=4.
Eosinophils may be the only cell that can recognize Alternaria. […] BEAS-2B stimulated with Alternaria also produced other pro-inflammatory factors such as IL-8 and GM-CSF. This Alternaria-induced IL-6 production was inhibited by ATBI, nelfinavir, ritonavir or pepstatin A-agarose treatment of Alternaria extract by about 60% to 90%; ritonavir results are shown in FIG. 11. In contrast, TNF-α-induced IL-6 production was not affected by these treatments. […] Thus, through its aspartate protease activity, Alternaria may activate airway epithelial cells; this activation is partially mediated by PAR-2.

Series [7] addresses T1, PAR-2 (Homo sapiens, UniProt P55085).
T1 construct: endogenous in cells; host or cells: isolated human blood eosinophils
T1 sequence (P55085 26-397): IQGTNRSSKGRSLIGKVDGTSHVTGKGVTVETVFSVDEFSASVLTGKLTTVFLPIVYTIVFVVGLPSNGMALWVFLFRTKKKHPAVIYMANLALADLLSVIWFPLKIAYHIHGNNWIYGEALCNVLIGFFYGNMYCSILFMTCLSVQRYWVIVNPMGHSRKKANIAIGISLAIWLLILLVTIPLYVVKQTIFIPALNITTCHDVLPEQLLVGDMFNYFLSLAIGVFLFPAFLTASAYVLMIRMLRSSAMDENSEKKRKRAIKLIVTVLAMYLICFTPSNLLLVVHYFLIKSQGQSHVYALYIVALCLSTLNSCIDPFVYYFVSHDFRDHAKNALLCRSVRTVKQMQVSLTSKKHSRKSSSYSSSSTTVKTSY
Description: Eosinophil calcium response to Alternaria extract after preincubation with PAR-2 peptides. The format is cell-based. The settings on record: preincubation with peptide, 100 μM. As to the method: FIG. 8. Desensitization of eosinophil calcium response (Panel A) and EDN release (Panel B) by PAR-2 peptides. Cells were preincubated with PAR-2 agonist (SLIGKV; SEQ ID NO:38), PAR-2 antagonist (LSIGKV; SEQ ID NO:35) or control peptide (GLIVKS; SEQ ID NO:36) (all at 100 μM) before stimulation with Alternaria extract (Panel A) or with Alternaria extract, PAF or PMA (Panel B).
The majority of previous studies in anti-fungal immune responses used the following models: animal infection in in vivo systems (e.g., Candida albicans, Aspergillus fumigatus), or entire fungal hyphae or conidia (e.g., C. albicans, A. fumigatus), a yeast model (e.g., zymosan), and isolated fungal carbohydrate macromolecules (e.g., β-glucan, mannan) in in vitro systems. These studies pointed to roles for TLRs, in particular TLR2 and TLR4, and to other pattern recognition receptors that immune cells, such as macrophages and neutrophils, use to recognize fungi. Because eosinophils express little TLR2 or TLR4 and the active component(s) in Alternaria extract was a heat-labile molecule(s) with an approximate 30-50 kDa molecular mass (FIG. 6), it was speculated that an Alternaria-derived protease(s) (not carbohydrates), interacting with eosinophil PAR-2, may be involved in the eosinophils' responses to Alternaria. Sine no specific small molecule inhibitor for PAR-2 is available, a desensitization approach was used. […] In contrast, degranulation induced by PAF or PMA was not affected by the LSIGKV (SEQ ID NP:35) peptide. Thus, PAR-2 is likely involved in the eosinophils' calcium and degranulation responses to Alternaria extract.

For series [8], the system named is PBMCs. Description: PBMC CD4+ T cell proliferation by CFSE labeling. The format is cell-based, human. The conditions noted are these: side-by-side experiment, day 7.
The test system of series [9] is PAR-2 peptide substrate (Abz-SKGRSLIGK(Dnp)D). Description: Fluorescent quenched PAR-2 peptide substrate cleavage assay. The format is biochemical.
From the text: as §2, §3

Series [10] relates to human eosinophils. In words: Eosinophil degranulation (EDN release) and activation by fungal extracts and proteins. The format is cell-based. The settings on record: through PAR-2. As to the method:
FIG. 5. Effects of fungi on eosinophil degranulation. Eosinophils were incubated with culture extracts of various fungi for 3 hours.
FIG. 21. Effects of Trichoderma xylanase on eosinophil degranulation (Panel A). Effects of Trichoderma xylanase on IL-5 production in mouse airways (Panel B). Panel A: Eosinophils were incubated with various concentrations of Trichoderma xylanase for 3 hours. EDN concentrations in the supernatants were measured by RIA as an indicator of degranulation. Panel B: Naive BALB/c mice were exposed intranasally to various doses of Trichoderma xylanase. After 12 hours, BAL fluids were collected and the concentrations of IL-5 were measured by ELISA. Mean±range, n=2.
FIG. 25. Partial characterization of Alternaria extract. A, Before incubation with eosinophils, aliquots of 100 μg/mL Alternaria and 10 ng/mL IL-5 were heated at 37, 56, or 100° C. for 30 min or were treated at 4° C. for 30 min. Eosinophils were incubated in duplicate with these treated stimuli for 3 hours at 37° C. […] The molecular weight calibration of the column is shown above the elution profile.
The following was performed to determine whether human eosinophils have an innate capacity to respond to environmental fungal organisms. Human eosinophils were incubated with extracts from common environmental airborne fungi.
as §1

Where two headings read alike, the source gives them in different places.

Take `N=C(N)c1ccc(CS(=O)(=O)F)cc1` [APMSF]: the “eosinophil degranulation (EDN release) induced by Alternaria extract” value in [1] was “not”; in [1] (listed as APSF) it was “did not inhibit”. Also, the “PAR-2 peptide cleavage activity of trypsin” value in series [2] is “inhibited the activity”. For the same molecule, the “PAR-2 peptide cleavage activity of Alternaria extract” value in [3] is “insensitive”.
For the molecule `C[C@@H]1[C@H](O)[C@@H](C)/C=C/C=C/C=C/C=C/C=C/C=C/C=C/[C@H](O[C@@H]2O[C@H](C)[C@@H](O)[C@H](N)[C@@H]2O)C[C@@H]2O[C@](O)(C[C@@H](O)C[C@@H](O)[C@H](O)CC[C@@H](O)C[C@@H](O)CC(=O)O[C@H]1C)C[C@H](O)[C@H]2C(=O)O` [amphotericin B], the “no effect seen, patients” value in series [4] (13/51 patients) is given as 25%. Besides, in series [4] (18/51 patients), the “endoscopically disease free, patients” value stood at 35%. In addition, the “endoscopically improved by at least one stage, patients” value in series [4] (additional 20/51 patients) worked out at 39%. In addition, in [4] (intranasal 20 mL of 100 μg/mL twice daily, mean 11 months, 38/51 patients), the “improvement of sinusitis symptoms, patients” value amounted to 75%. Also, the “inflammatory mucosal thickening on CT scans pre- and post-treatment” value in series [4] (n=12) is “significant reduction”. For the same molecule, the “safety of direct muco-administration” value in series [4] (open-label pilot trial) was “safe”. In addition, the “change in intranasal mucus levels of EDN” value in series [5] (increase in placebo group, p=0.046) was “a reduction”. In series [5] (p=0.038), the “changes in endoscopic scores compared to placebo” value is on record as “improved”. Also, the “mucosal thickening on CT scans compared to placebo” value in [5] (20 mL 250 μg/mL each nostril twice daily, p=0.030) was “reduced”.
Take `Cc1c(O)cccc1C(=O)N[C@@H](CSc1ccccc1)[C@H](O)CN1C[C@H]2CCCC[C@H]2C[C@H]1C(=O)NC(C)(C)C` [nelfinavir]: the “eosinophil degranulation (EDN release) induced by Alternaria extract” value in series [1] is recorded as “confirmed”. The “TNF-α-induced IL-6 production by BEAS-2B cells” value (“TNF-α-induced IL-6 production” for short) in series [6] is listed as “not affected”.
With `CC(C)c1nc(CN(C)C(=O)N[C@H](C(=O)N[C@@H](Cc2ccccc2)C[C@H](O)[C@H](Cc2ccccc2)NC(=O)OCc2cncs2)C(C)C)cs1` [ritonavir], the “eosinophil degranulation (EDN release) induced by Alternaria extract” value in series [1] is listed as “confirmed”. In series [6], the “TNF-α-induced IL-6 production” value was “not affected”.
For “GLIVKS (Synthetically generated oligonucleotide) [control scramble peptide]”, in series [7], the “eosinophils' calcium response to Alternaria extract” value (“eosinophils' calcium response” below) was “showed no effects”.
As to “LSIGKV (Synthetically generated oligonucleotide) [PAR-2 antagonist]”, in series [7], the “eosinophils' calcium response” value is reported as “also inhibited”. Further, the “eosinophil degranulation (EDN release) induced by Alternaria extract” value was “significantly and specifically inhibited” in series [1]; “inhibited” in [1] (listed as PAR2-inhibitory peptide). For the same molecule, the “eosinophil degranulation induced by PAF” value in [1] (peptide 100 μM) is on record as “not affected”. In addition, the “eosinophil degranulation induced by PMA” value in series [1] (peptide 100 μM) is reported as “not affected”. The “inhibition of Alternaria-induced IL-6 production by BEAS-2B cells” value in [6] (treatment of Alternaria extract or PAR-2 antagonist) is about 40%.
With “SLIGKV (Synthetically generated oligonucleotide) [PAR-2 agonistic peptide]”, in [7], the “eosinophils' calcium response” value was “significantly inhibited”.
Turning to “alkalo-thermophilic bacillus inhibitor [ATBI]”, in series [1], the “eosinophil degranulation (EDN release) induced by Alternaria extract” value is “confirmed”. Also, the “TNF-α-induced IL-6 production” value in series [6] is on record as “not affected”.
In the case of tetanus toxoid: tetanus toxoid, the figures for the “CFSElow CD4+ cells” value in [8] (CRS patient) and in series [8] (normal individual) were 43.2% and 47.9%, respectively.

B1: trypsin: serine protease, positive control (protein, UniProt P00760 24-246, looked up)
Serine protease 1: IVGGYTCGANTVPYQVSLNSGYHFCGGSLINSQWVVSAAHCYKSGIQVRLGEDNINVVEGNEQFISASKSIVHPSYNSNTLNNDIMLIKLKSAASLNSRVASISLPTSCASAGTQCLISGWGNTKSSGTSYPDVLKCLKAPILSDSSCKSAYPGQITSNMFCAGYLEGGKDSCQGDSGGPVVCSGKLQGIVSWGSGCAQKNKPGVYTKVCNYVSWIKQTIASN
For B1, the “cleavage of PAR-2 peptide substrate” value in [9] is “clearly cleaved”. The “activation of human eosinophils by proteases” value in series [10] was “activated”.
